From patent EP3748362A1, “IN VITRO METHOD FOR DETECTING RENAL DISEASE” (Fundacion Instituto De Investigacion Sanitaria Fundacion …, priority 2019, dated 2020)

Columns and labels:
TRAF3 [1] = experiment: Renal TRAF3 (western blot), folic acid-induced renal injury in mice; format: in vivo; settings: folic acid 300 mg/kg model; paricalcitol 25 µg/kg/day i.p.
Experimental: (§1) All animal procedures were performed according to the guidelines of animal research in the European Community and with prior approval by the Ethics Committee of the Health Research of the IIS-Fundacion Jiménez Díaz. For in vivo studies, mice received a daily intraperitoneal injection of the VDRA Paricalcitol starting 48 hours prior to induction of kidney damage.
(§2) At the time of sacrifice, animals were anesthetized with 5 mg/kg xylazine (Rompun, Bayer AG) and 35 mg/kg ketamine (Ketolar, Pfizer) and the kidneys perfused in situ with cold saline before removal. Then, kidney portions were fixed in formalin buffer for immunohistochemistry studies or immediately frozen in liquid nitrogen for gene and protein studies.
Folic acid nephropathy is a classical model of kidney tubulointerstitial injury and inflammation that has been reported in humans. Mice received a single intraperitoneal injection of folic acid (Sigma) 300 mg/kg in 0.3 mol/l sodium bicarbonate or vehicle, and were sacrificed 48 hours later. […]
(§3) For western blot, cell (25 µg/lane) and kidney (100-150 µg/lane) protein extracts were separated on 6%-12% polyacrylamide-SDS gels under reducing conditions. […] Autoradiographs were scanned using the Gel Doc™ EZ imager and analyzed with the Image Lab 3.0 software (BioRad).

NF-κB1 = experiment: Canonical NF-κB1 activation in obstructed kidneys (UUO) in mice; format: in vivo; settings: paricalcitol-treated obstructed kidneys (UUO); 750 ng/kg/day
Experimental: as §1, §2
Unilateral ureteral obstruction (UUO) was established in male C57BL/6 mice, under isoflurane-induced anesthesia. […]
as §3

TRAF3 [2] = experiment: TRAF3 western blot in TWEAK-stimulated PBMCs from healthy donors; format: cell-based, Human; settings: paricalcitol 15 umol/L 48 hours before TWEAK 100 ng/ml for 24 hours
TRAF3 [3] = experiment: TRAF3 protein (western blot) and mRNA (real time RT-PCR) levels in PBMCs from ESRD patients treated or not with paricalcitol; format: in vivo, human; settings: PBMCs of paricalcitol-treated ESRD patients on hemodialysis
Experimental: Intracellular protein and mRNA levels were measured in PBMCs from ESRD patients on hemodialysis. Inclusion criteria were as follows: age >45 years; male sex; informed consent; and absence of active inflammatory, infectious, or malignant diseases at the initiation or during the study. This study was approved by the IIS-Fundación Jiménez Diaz Ethics Committee. Patients were enrolled after providing written informed consent. PBMCs were separated from whole blood samples (30 ml into EDTA tubes) by a density gradient centrifugation method using Ficoll density gradient centrifugation. In total, 50x10^6 of PBMCs were obtained from 30 ml of whole blood and 6x10^6 PBMCs were used to isolate protein, RNA and nuclear/cytosolic protein levels using the NE-PER Reagent (Pierce) following the manufacturer's instructions.
as §3
Total RNA was isolated from cells and mouse kidney samples with Trizol (Invitrogen). […] The mRNA copy numbers were calculated for each sample by the instrument software using Ct value. Results are expressed in copy numbers, calculated relative to unstimulated cells or control mice, after normalization against 18S.

TRAF3 [4] = experiment: TRAF3 western blot in TWEAK-stimulated HK2 cells; format: cell-based, Human; settings: paricalcitol 15 umol/L 48 hours before TWEAK 100 ng/ml for 24 hours
Experimental: Human kidney proximal tubule epithelial cells (HK2 cell line, ATCC CRL-2190) were grown in RPMI 1640 with 10% fetal bovine serum (FBS), 1% glutamine, 100 U/ml penicillin, 100 µg/ml streptomycin, 5 µg/ml insulin-transferrin-selenite and 36 ng/ml hydrocortisone in 5% CO2 at 37° C. When cells reached 60 to 70% confluence, they were serum-depleted for 24 hours before the experiment.
Cells were stimulated with 100ng/ml recombinant human soluble TWEAK (Millipore) or p-200 µg/ml cresyl-sulfate (Raymond Vanholder and Griet Glorieux, University of Gent, Belgium). Concentrations of TWEAK and p-cresyl-sulfate were based on previously published dose-response experiments (Poveda et al. 2014; Sanz et al. 2008). […] DMSO, used as a solvent in some cases, had no effect on cell viability or on gene expression levels.
as §3

C[C@H](/C=C/[C@H](C)C(C)(C)O)[C@H]1CC[C@H]2/C(=C/C=C3C[C@@H](O)C[C@H](O)C3)CCC[C@]12C [paricalcitol]
renal TRAF3 protein levels (TRAF3 [1]): restored renal TRAF3 protein levels to values of control mice | NF-κB1 activation, evaluated by IκB-α phosphorylation and p65/NF-κB DNA binding activity (NF-κB1): not modified | TWEAK-induced TRAF3 degradation (TRAF3 [2]): inhibited | TRAF3 mRNA levels (TRAF3 [3]; real time RT-PCR): no changes | TRAF3 protein levels (TRAF3 [3]; western blot, vs healthy controls): restored to values in the range of healthy controls | TWEAK-induced TRAF3 protein levels (TRAF3 [4]): restored TWEAK-induced TRAF3 protein levels to values similar to control-untreated cells
